Data set [1] relates to normal human melanocytes in co-culture (NHEM-NHEK; M/K). As to the kind of experiment: Production of melanin in M/K co-cultures, irradiated or not. It counts as cell-based. The note with it: for quantity of melanin compared to the control (control = 100) / variation of the quantity of melanin compared to the control (value in brackets): 240 hours. Here is the method:
(§1) The effect of OX100 was studied on the production of melanin by normal human melanocytes in co-culture (NHEM-NHEK; M/K) irradiated or not. Melanocyte/keratinocyte co-cultures (NHEM-NHEK; M/K) are incubated for 240 hours, in the absence or presence of OX100. The quantity of melanin present in the cells after incubation is measured by spectrophotometry. 1) M/K co-cultures are inoculated in medium free of PMA (phorbol myristate acetate) and are brought to 60-80% confluence for the test. 2) Three identical culture series are prepared in order to measure: • cytotoxicity by a MTT (tetrazolium salt) test and by morphological observation of the cells, • quantity of melanin, • quantity of total proteins (in order to determine the ratio of melanin to total protein). 3) Treatment conditions are as follows: • OX100 at three concentrations: 2×10^−6, 10^−5, 2×10^−5 M. • Kojic acid (reference depigmenting molecule). • IBMX (3-isobutyl-1-methylxanthine, pro-pigmenting reference molecule). Each treatment condition is carried out in triplicate. The co-cultures are incubated for 240 hours in the presence or absence of the compounds above. Irradiation by ultraviolet rays (25 mJ/cm^2 of UVB+300 mJ/cm^2 of UVA) is carried out four times per day for consecutive four days. At the end of the treatment, the cellular monolayers are washed. After cell lysis, the melanin crystals are extracted and solubilized. The melanin is quantified by measurement of the OD (optical density) at 450 nm and by comparison with a range of melanin standards.

Data set [2] relates to Melanocyte/keratinocyte co-cultures (NHEM-NHEK; M/K). The data set can be described thus: Viability (MTT test) of M/K co-cultures. Particulars: for Viability percentage (MTT test): 240 hours. It counts as cell-based, human. The procedure:
as §1, with “Melanocyte/keratinocyte” for “The effect of OX100 was studied on the production of melanin by normal human melanocytes in co-culture (NHEM-NHEK; M/K) irradiated or not. Melanocyte/keratinocyte”, “days.” for “days. At the end of the treatment, the cellular monolayers are washed. After cell lysis, the melanin crystals are extracted and solubilized. The melanin is quantified by measurement of the OD (optical density) at 450 nm and by comparison with a range of melanin standards.”

Data set [3] is described as follows: Assessment of cutaneous acceptability by the volunteers. It counts as in vivo, human (adult female volunteers). Set-up: volunteers reporting no cutaneous manifestations: unit not given here. An excerpt:
Assessment of Cutaneous Acceptability by the Volunteers

Data set [4] has as its system skin of the hands (spot-free area and pre-identified pigmentation spot). As to the kind of experiment: Colorimetric measurements (Chromameter) on the hands, treated hand vs. control hand. The note with it: for Individual typological angle (ITA), treated hand / Lightness variable L*, treated hand: mean ± SEM. It counts as in vivo, human (adult female volunteers). An excerpt:
Among these volunteers, 14% were North-African in origin and 86% Mediterranean, including 76% of phototype IV and 10% of phototype V. All of these volunteers had lentigo pigmentation spots on the hands and most had them on the face. COLORIMETRIC MEASUREMENTS (Chromameter™): Variance homogeneity and distribution normality were verified in all cases. Measurements are taken on the hands, in an area without pigmentation spots. The results correspond to the means and deviations with respect to the mean-SEM. The time and product effects results with values less than 0.05 are statistically significant. The result corresponding to both the time and product effects gives the value of the probability of the differences Δ (T=6 weeks minus T0) by the Student's t-test in a paired series (bilateral significance test, p<0.05). Measurements are carried out on the hands in an area with pigmentation spots. The results correspond to the means and deviations with respect to the mean-SEM.

Data set [5] concerns lentigo pigmentation spots, skin of hands and face. The data set can be described thus: Clinical evaluation of hands and face after six weeks of application. It counts as in vivo, human (adult female volunteers). An excerpt: Among these volunteers, 14% were North-African in origin and 86% Mediterranean, including 76% of phototype IV and 10% of phototype V. All of these volunteers had lentigo pigmentation spots on the hands and most had them on the face. The results of the statistically significant variation, after six weeks of application, of some of the criteria evaluated are given in table 6 below: The percentages correspond to variations with respect to the initial evaluations, the p value corresponds to probability p with respect to the initial evaluations (Wilcoxon test, bilateral significance test, p<0.05). For measurements of pigmentation spot intensity, the intensity of the spot is identified beforehand. The results of the statistically significant variation, after six weeks of application, of some of the criteria evaluated are given in table 7 below: The percentages correspond to variations with respect to the initial evaluations, the p value corresponds to probability p with respect to the initial evaluations (Wilcoxon test, bilateral significance test, p<0.05). For measurements of pigmentation spot intensity, the intensity of the spot is identified beforehand.

Data set [6] is described as follows: Overall assessment of the product's acceptability and effectiveness by the volunteers. It counts as in vivo, human (adult female volunteers). Set-up: unit not given here. Particulars: panel of 21 volunteers. An excerpt:
Overall Assessment of the Product's Acceptability and Effectiveness by the Volunteers

[7] abbreviates: area with spots (pre-identified pigmentation spot), T = 0 (before treatment).
Where [8] appears, read: area with spots (pre-identified pigmentation spot), T = 6 weeks.
The mark [9] stands for this setting: spot-free area of the hands, T = 0 (before treatment).
Setting [10] is: spot-free area of the hands, T = 6 weeks.

Here are results for three molecules from patent publication US8722023B2, “Depigmenting or brigthening cosmetic composition comprising at least one oxazolin as an active ingredient” (Laboratoires Expanscience, priority 2005, dated 2014).

Regarding `CC(C)Cn1c(=O)n(C)c(=O)c2[nH]cnc21` [IBMX, 3-isobutyl-1-methylxanthine, reference compound], the “quantity of melanin compared to the control (control = 100)” value came out at 114% in data set [1] (200 μM, With UV) and 118% in data set [1] (200 μM, Without UV). Also, the “variation of the quantity of melanin compared to the control (value in brackets)” value in data set [1] (With UV) is given as “+14%”; in data set [1] (Without UV), “+15%”. In addition, the “Viability percentage (MTT test)” value is 111% in data set [2] (200 μM, With UV) and 118% in data set [2] (200 μM, Without UV).
In the case of `O=c1cc(CO)occ1O` [Kojic acid, reference compound], the “quantity of melanin compared to the control (control = 100)” value in data set [1] (15.6 μg/ml, With UV) was 83%; in data set [1] (15.6 μg/ml, Without UV), 74%. Further, the “variation of the quantity of melanin compared to the control (value in brackets)” value in data set [1] (15.6 μg/ml, With UV) is recorded as −20%; in data set [1] (15.6 μg/ml, Without UV), −35%. In addition, the “Viability percentage (MTT test)” value in data set [2] (0.0156 mg/ml, With UV) is listed as 99%; in data set [2] (0.0156 mg/ml, Without UV), 102%.
On to `CCCCCCCCCCCC1=NC(C)(C)CO1` [OX100, 2-undecyl-4,4-dimethyl-1,3-oxazoline], for which the “dermatological tolerance, conclusion in words” value in data set [3] (conclusion of Example 6) is given as “dermatologically well-tolerated”. The “volunteers reporting no cutaneous manifestations” value in data set [3] (panel of 21 volunteers) is recorded as “Ninety-five”. The “volunteers reporting no ocular manifestations” value in data set [3] (panel of 21 volunteers) worked out at 100%. Also, the “quantity of melanin compared to the control (control = 100)” value in data set [1] (2 × 10^−5 M, With UV) stood at 104%; in data set [1] (2 × 10^−5 M, Without UV), 89%; in data set [1] (2 × 10^−6 M, With UV), 100%; in data set [1] (2 × 10^−6 M, Without UV), 102%; in data set [1] (10^−5 M, With UV), 99%; in data set [1] (10^−5 M, Without UV) it was 104%. For the same molecule, the “variation of the quantity of melanin compared to the control (value in brackets)” value in data set [1] (2 × 10^−5 M, With UV) is “+4%”; in data set [1] (2 × 10^−5 M, Without UV) it was −12%; in data set [1] (2 × 10^−6 M, With UV) it was 0%; in data set [1] (2 × 10^−6 M, Without UV) it was −1%; in data set [1] (10^−5 M, With UV), −1%; in data set [1] (10^−5 M, Without UV), “+4%”. In addition, in data set [1] (irradiated co-cultures (UVB + UVA)), the “effect on melanin in the irradiated study model, in words” value was “neutralizes the effect of ultraviolet rays”. For the same molecule, the “inhibition of the synthesis of melanin” value in data set [1] (non-irradiated co-cultures, 2.10^−5 M, p<0.01) is listed as “roughly 12%”. Further, the “Viability percentage (MTT test)” value in data set [2] (2 × 10^−5 M, With UV) is 105%; in data set [2] (2 × 10^−5 M, Without UV), 115%; in data set [2] (2 × 10^−6 M, With UV), 97%; in data set [2] (2 × 10^−6 M, Without UV), 102%; in data set [2] (10^−5 M, With UV), 99%; in data set [2] (10^−5 M, Without UV), 108%. In data set [2] (at the concentrations tested), the “toxicity for the M/K co-cultures, in words” value is on record as “not toxic”. The “Individual typological angle (ITA), treated hand” value in data set [4] (setting [7]) is 5.0 ± 4.5; in data set [4] (setting [8]), 11.0 ± 5.2; in data set [4] (setting [9]), 38.5 ± 2.4; in data set [4] (setting [10]), 44.1 ± 2.4. Moreover, the “Lightness variable L*, treated hand” value in data set [4] (setting [7]) came out at 51.2 ± 1.1; in data set [4] (setting [8]), 52.4 ± 1.2; in data set [4] (setting [9]), 58.4 ± 0.7; in data set [4] (setting [10]), 59.2 ± 0.7. The “increase in chromaticity coordinate L*” value in data set [4] (area with spots, six weeks of applications, compared to initial values and control hand, p=0.048) is “+2%”; in data set [4] (spot-free area, six weeks of applications, compared to initial values and control hand, p=0.017), “+2%”. Moreover, the “increase in ITA” value in data set [4] (spot-free area, six weeks of applications, compared to initial values and control hand, p=0.008) is “+13%”. Moreover, the “COLOR LIGHTNESS, variation with respect to initial evaluation” value in data set [5] (face, p = 0.0001 (Wilcoxon)) is “+22% (p = 0.0001)”. The “INTENSITY OF THE PIGMENTATION SPOT, variation with respect to initial evaluation” value in data set [5] (face, p = 0.0196 (Wilcoxon)) is reported as −8% (p = 0.0196); in data set [5] (hands, p = 0.0143 (Wilcoxon)), −5% (p = 0.0143). For the same molecule, the “COLOR UNIFORMITY, variation with respect to initial evaluation” value in data set [5] (face, p = 0.0455 (Wilcoxon)) is “+4% (p = 0.0455)”. In data set [5] (hands, p = 0.0002 (Wilcoxon)), the “SKIN LIGHTNESS, variation with respect to initial evaluation” value is listed as “+16% (p = 0.0002)”. For the same molecule, in data set [5] (hands, p = 0.0209 (Wilcoxon)), the “SKIN UNIFORMITY, variation with respect to initial evaluation” value is “+10% (p = 0.0209)”. Further, the “volunteers reporting somewhat good to good effectiveness as a depigmenting/lightening product” value in data set [6] is given as “Thirty-eight”.
